Laboratory results reported in publication PMC8327158, “PEGylated AdipoRon derivatives improve glucose and lipid metabolism under insulinopenic and high-fat diet conditions” (Journal of Lipid Research, 2021).

System: HFD-fed wild-type mice
Assay: Sphingolipid levels in tissues and serum of HFD-fed mice by mass spectrometry
Format: in vivo, mouse
Conditions: for Cer 14:0 / Cer 16:0 / Cer 18:0 / Cer 18:1 / Cer 20:0 / Cer 22:0 / Cer 24:0 / Cer 24:1 / Cer 26:0 / Cer 26:1 / DeoxySphinganie / Deoxysphingosine / Hexosyl 14:0 / Hexosyl 16:0 / Hexosyl 18:0 / Hexosyl 20:0 / Hexosyl 22:0 / Hexosyl 24:0 / Hexosyl 24:1 / Lactosyl 16:0 / Lactosyl 18:0 / Lactosyl 22:0 / Lactosyl 24:1 / Lactosyl C24:0 / Sphingaine1P / Sphinganine / Sphingosine / Sphingosine1P / dCer 16:0 / dCer 18:0 / dCer 20:0 / dCer 22:0 / dCer 24:0 / dCer 24:1: 5 mg/kg twice a day 5 days, average ± SD
Method: Six-week-old wild-type male mice were fed HFD for 4 weeks or 7 months In total, 5 mg/Kg of PBS, Adiporon, AdipoRonPEG5, AdipoRonPEG6HTL were injected twice a day for 5 days. After 5 days of treatment, systemic test is performed, and serum (Before and after treatment), subcutaneous, epididymal, liver, heart samples were harvested for qPCR and sphingolipid analysis.
Flash-frozen tissue samples (~40 mg) in a borosilicate glass tube were quenched with 2.0 ml of organic extraction solvent (isopropanol: ethyl acetate, 15:85; v:v) and homogenized with a mechanical tissue disruptor. Immediately afterward, 20 μl of organic internal standard solution was added (Ceramide/Sphingoid Internal Standard Mixture II diluted 1:10 in ethanol). The mixture was vortexed for 20 s and sonicated in ultrasonic bath for 40 min at 40°C. The organic extract was allowed to reach room temperature, and 1.5 ml of HPLC water was added and a two-phase liquid-liquid extraction was performed. The upper phase was transferred to a new clean tube, and the lower aqueous phase containing the protein pellet was re-extracted with additional 2.0 ml of organic extraction solvent. The organic phases were combined and dried under nitrogen stream at 40°C. Dried extracts were stored at –80°C until analysis. For analysis of ceramides and sphingoid base species, the dried residues were reconstituted in 200 μl of methanol. Sphingomyelins required a sample dilution of 1:50 in methanol prior to analysis. Serum sphingolipids were extracted using a similar methodology requiring 25 μl of serum.
Liver, subcutaneous adipose tissue, pancreas, pancreatic islets were initially homogenized in 500 μl of cold PBS using an ultrasonic probe disruptor and keeping the sample on ice during sonication. In total, 50 μl of aqueous homogenate was aliquoted for protein determination. In total, 400 μl of the lysate was immediately quenched in 2.0 ml of organic extraction solvent.
In total, 5 μl of reconstituted samples was injected into an LC/MS/MS system for the analysis of ceramides and sphingoid bases, and 1 μl injection was required for the analysis of sphingomyelins. The system consisted of a Shimadzu LCMS-8050 triple-quadrupole mass spectrometer with the dual ion source operating in electrospray positive ionization mode. The mass spectrometer is coupled to a Shimadzu Nexera X2 UHPLC system equipped with three solvent delivery modules LC-30AD, three degassing units DGU-20A5R, an autosampler SIL-30ACMP, and a column oven CTO-20AC operating at 40°C (Shimadzu Scientific Instruments, Columbia, MD). Six sphingoid bases (d18:1 sphingosine, d18:1 sphingosine-1-phosphate, d18:1 deoxysphingosine, d18:0 sphinganine, d18:0 sphinganine-1-phosphate, d18:0 deoxysphinganine) and […] ceramide species and their metabolites (C16:0, C16:0 dihydroceramide, C16:0 glucosylceramide, C16:0 lactosylceramide, C16:0 sphingomyelin, C18:0, C18:0 dihydroceramide, C18:0 glucosylceramide, C18:0 sphingomyelin, C18:1, C20:0, C22:0, C22:0 glucosylceramide, C24:0, C24:0 dihydroceramide, C24:0 lactosylceramide, C24:0 sphingomyelin, C24:1, C24:1 dihydroceramide, C24:1 glucosylceramide, C24:1 sphingomyelin). Quantitative analysis of sphingolipids was achieved using selective reaction monitoring scan mode. Lipid separation was achieved by reverse phase LC on a 2.1 (i.d.) × 150 mm Ascentis Express C8, 2.7 micron (Supelco, Bellefonte, PA) column under gradient elution, using three different mobile phases: eluent A consisting of methanol/water/formic acid, 600/400/0.8, v/v/v with 5 mM ammonium formate, eluent B consisting of methanol/formic acid, 1,000/0.8, v/v with 5 mM ammonium formate, and eluent C consisting of CH3OH/CH2Cl2 350/650. The concentration of each metabolite was determined according to calibration curves using the peak-area ratio of analyte versus corresponding internal standard. Calibration curves were generated using serial dilutions of each target analyte.

## O=C(COc1ccc(C(=O)c2ccccc2)cc1)NC1CCN(Cc2ccccc2)CC1 [AdipoRon]
5 mg/kg
  scWAT ceramide levels: neither AdipoRon nor AdipoRonPEG5 had a noticeable impact
IP 5 mg/kg
  hepatic dihydroceramides: nor did it lower dihydroceramide
  sphingoid bases including S1P in the liver: neither increased sphingoid bases
liver
  Cer 14:0: 11180.9 ± 7129.23 pg/mg
  Cer 16:0: 15452.5 ± 14214.83 pg/mg
  Cer 18:0: 47128.6 ± 39264.7 pg/mg
  Cer 18:1: 0 pg/mg
  Cer 20:0: 2021924.3 ± 1132557.52 pg/mg
  Cer 22:0: 21221267.5 ± 1938950.14 pg/mg
  Cer 24:0: 8844684.8 ± 1440139.38 pg/mg
  Cer 24:1: 7621686.9 ± 1072827.16 pg/mg
  Cer 26:0: 108319.5 ± 12837.73 pg/mg
  Cer 26:1: 87632.7 ± 14143.63 pg/mg
  DeoxySphinganie: 16855.9 ± 5197.82 pg/mg
  Deoxysphingosine: 554.4 ± 112.17 pg/mg
  Hexosyl 14:0: 6839.3 ± 2807.56 pg/mg
  Hexosyl 16:0: 2057918.6 ± 682419.73 pg/mg
  Hexosyl 18:0: 13702.3 ± 11183.27 pg/mg
  Hexosyl 20:0: 139906.7 ± 74494.86 pg/mg
  Hexosyl 22:0: 21992555.3 ± 7887275.74 pg/mg
  Hexosyl 24:0: 9407290.2 ± 3691767.57 pg/mg
  Hexosyl 24:1: 7250991.4 ± 2638110.11 pg/mg
  Lactosyl 16:0: 401293.8 ± 92547.01 pg/mg
  Lactosyl 18:0: 0.0 ± 0.0 pg/mg
  Lactosyl 22:0: 604972.0 ± 219908.19 pg/mg
  Lactosyl 24:1: 424590.5 ± 191122.31 pg/mg
  Lactosyl C24:0: 317251.2 ± 183613.54 pg/mg
  Sphingaine1P: 55129.9 ± 14495.18 pg/mg
  Sphinganine: 299552.9 ± 52030.89 pg/mg
  Sphingosine: 1192462 ± 75216.97 pg/mg
  Sphingosine1P: 178631.8 ± 67607.36 pg/mg
  dCer 16:0: 18233.3 ± 21176.21 pg/mg
  dCer 18:0: 45901.3 ± 42922.13 pg/mg
  dCer 20:0: 37867.7 ± 27772.5 pg/mg
  dCer 22:0: 385034 ± 150652 pg/mg
  dCer 24:0: 364847.1 ± 73663.91 pg/mg
  dCer 24:1: 130075.8 ± 53105.06 pg/mg
pancreas
  Cer 14:0: 26.4 ± 4.51 pg/mg
  Cer 16:0: 26.1 ± 10.18 pg/mg
  Cer 18:0: 28.9 ± 6.11 pg/mg
  Cer 18:1: 0 pg/mg
  Cer 20:0: 1529.7 ± 140.3 pg/mg
  Cer 22:0: 7541.1 ± 1118.82 pg/mg
  Cer 24:0: 21064.5 ± 2932.0 pg/mg
  Cer 24:1: 10791.6 ± 1783.65 pg/mg
  Cer 26:0: 155.6 ± 36.08 pg/mg
  Cer 26:1: 81.6 ± 16.04 pg/mg
  DeoxySphinganie: 2.1 ± 0.29 pg/mg
  Deoxysphingosine: 0.0 ± 0.0 pg/mg
  Hexosyl 14:0: 3.8 ± 0.85 pg/mg
  Hexosyl 16:0: 2561.5 ± 453.4 pg/mg
  Hexosyl 18:0: 7.3 ± 3.14 pg/mg
  Hexosyl 20:0: 112.7 ± 34.01 pg/mg
  Hexosyl 22:0: 6774.3 ± 637.6 pg/mg
  Hexosyl 24:0: 3358.5 ± 311.97 pg/mg
  Hexosyl 24:1: 1427.8 ± 124.45 pg/mg
  Lactosyl 16:0: 975.8 ± 208.21 pg/mg
  Lactosyl 18:0: 52.8 ± 9.76 pg/mg
  Lactosyl 22:0: 223.0 ± 50.43 pg/mg
  Lactosyl 24:1: 310.1 ± 93.68 pg/mg
  Lactosyl C24:0: 2057.1 ± 422.83 pg/mg
  Sphingaine1P: 17.5 ± 11.69 pg/mg
  Sphinganine: 25.9 ± 3.48 pg/mg
  Sphingosine: 217.3 ± 27.75 pg/mg
  Sphingosine1P: 90.3 ± 22.26 pg/mg
  dCer 16:0: 3.8 ± 1.52 pg/mg
  dCer 18:0: 0.0 ± 0.0 pg/mg
  dCer 20:0: 2.0 ± 0.18 pg/mg
  dCer 22:0: 24.6 ± 9.85 pg/mg
  dCer 24:0: 206.7 ± 49.68 pg/mg
  dCer 24:1: 24.0 ± 10.28 pg/mg
scWAT
  Cer 14:0: 41670.5 ± 9888.98 pg/mg
  Cer 16:0: 200569.4 ± 60832.18 pg/mg
  Cer 18:0: 90968.7 ± 40221.97 pg/mg
  Cer 18:1: 24648 ± 8680 pg/mg
  Cer 20:0: 189778.3 ± 38166.38 pg/mg
  Cer 22:0: 835762.6 ± 112294.65 pg/mg
  Cer 24:0: 2316061.3 ± 1012651.99 pg/mg
  Cer 24:1: 2616280.7 ± 714833.34 pg/mg
  Cer 26:0: 25284.4 ± 8047.31 pg/mg
  Cer 26:1: 27852.3 ± 8212.8 pg/mg
  DeoxySphinganie: 1039.3 ± 1085.07 pg/mg
  Deoxysphingosine: 0.0 ± 0.0 pg/mg
  Hexosyl 14:0: 3863.9 ± 2313.65 pg/mg
  Hexosyl 16:0: 1558779.8 ± 419292.53 pg/mg
  Hexosyl 18:0: 879349.9 ± 318302.5 pg/mg
